Test results: ChEMBL document CHEMBL4325841, “5-(4-Hydroxyphenyl)-3H-1,2-dithiole-3-thione-based fibrates as potential hypolipidemic and hepatoprotective agents” (2018)
Active and inactive are the calls of the source. The calls are words filed in the database; no cut-off is given here.

Assays:
Mus musculus [1] = assay: Antihyperlipidemic activity in Triton WR-1339-induced hyperlipidemic mouse model assessed as decrease in total cholesterol level at 13 mg/kg, po for 7 days and co-treated with Triton WR-1339 on day 6; format: functional, organism-based
Mus musculus [2] = assay: Antihyperlipidemic activity in Triton WR-1339-induced hyperlipidemic mouse model assessed as decrease in serum triglyceride level at 13 mg/kg, po for 7 days and co-treated with Triton WR-1339 on day 6; format: functional, organism-based
Mus musculus [3] = assay: Antioxidant activity in high fat diet-induced hyperlipidemic mouse model assessed as increase in GSH-PX level at 13 mg/kg, po administered for last 30 days during 60 days of high fat diet feeding relative to control; format: functional
Mus musculus [4] = assay: Antihyperlipidemic activity in high fat diet-induced hyperlipidemic mouse model assessed as increase in HDL level at 13 mg/kg, po administered for last 30 days during 60 days of high fat diet feeding relative to control; format: functional
Mus musculus [5] = assay: Antihyperlipidemic activity in Triton WR-1339-induced hyperlipidemic mouse model assessed as decrease in serum MDA level at 13 mg/kg, po for 7 days and co-treated with Triton WR-1339 on day 6; format: functional, organism-based
Mus musculus [6] = assay: Antioxidant activity in high fat diet-induced hyperlipidemic mouse model assessed as increase in SOD level at 13 mg/kg, po administered for last 30 days during 60 days of high fat diet feeding relative to control; format: functional
Mus musculus [7] = assay: Hepatoprotective activity in high fat diet-induced hyperlipidemic mouse model assessed as decrease in inflammatory cell infiltration at 13 mg/kg, po administered for last 30 days during 60 days of high fat diet feeding by H and E staining-based microscopic analysis; format: functional, organism-based
Mus musculus [8] = assay: Hepatoprotective activity in high fat diet-induced hyperlipidemic mouse model assessed as reduction in ALT level at 13 mg/kg, po administered for last 30 days during 60 days of high fat diet feeding relative to control; format: functional
Mus musculus [9] = species on record: Mus musculus; assay: animal or person; format: functional; settings: po
Description: Antihyperlipidemic activity in high fat diet-induced hyperlipidemic mouse model assessed as reduction in atherosclerosis index at 13 mg/kg, po administered for last 30 days during 60 days of high fat diet feeding relative to control

Mus musculus [10] = assay: Antihyperlipidemic activity in high fat diet-induced hyperlipidemic mouse model assessed as reduction in total cholesterol level at 13 mg/kg, po administered for last 30 days during 60 days of high fat diet feeding relative to control; format: functional
Mus musculus [11] = assay: In vivo anti-inflammatory activity in high fat diet-induced hyperlipidemic mouse model assessed as reduction in TNF-alpha level at 13 mg/kg, po administered for last 30 days during 60 days of high fat diet feeding relative to control; format: functional
Mus musculus [12] = assay: In vivo anti-inflammatory activity in high fat diet-induced hyperlipidemic mouse model assessed as reduction in IL-6 level at 13 mg/kg, po administered for last 30 days during 60 days of high fat diet feeding relative to control; format: functional
Mus musculus [13] = assay: Hepatoprotective activity in high fat diet-induced hyperlipidemic mouse model assessed as inhibition of lipid accumulation at 13 mg/kg, po administered for last 30 days during 60 days of high fat diet feeding by oil-red O staining-based microscopic analysis; format: functional, organism-based
Mus musculus [14] = assay: Antioxidant activity in high fat diet-induced hyperlipidemic mouse model assessed as reduction in MDA level at 13 mg/kg, po administered for last 30 days during 60 days of high fat diet feeding relative to control; format: functional
Mus musculus [15] = assay: Hepatoprotective activity in high fat diet-induced hyperlipidemic mouse model assessed as reduction in AST level at 13 mg/kg, po administered for last 30 days during 60 days of high fat diet feeding relative to control; format: functional
Mus musculus [16] = assay: Antihyperlipidemic activity in high fat diet-induced hyperlipidemic mouse model assessed as reduction in serum triglyceride level at 13 mg/kg, po administered for last 30 days during 60 days of high fat diet feeding relative to control; format: functional
Mus musculus [17] = assay: Hepatoprotective activity in high fat diet-induced hyperlipidemic mouse model assessed as decrease in tissue hemorrhage at 13 mg/kg, po administered for last 30 days during 60 days of high fat diet feeding by H and E staining-based microscopic analysis; format: functional, organism-based
Mus musculus [18] = assay: Antihyperlipidemic activity in high fat diet-induced hyperlipidemic mouse model assessed as LDL level at 13 mg/kg, po administered for last 30 days during 60 days of high fat diet feeding relative to control; format: functional

With `CC(C)OC(=O)C(C)(C)Oc1ccc(C(=O)c2ccc(Cl)cc2)cc1` [FENOFIBRATE] the Activity (Mus musculus [1]) was “inactive”, the Activity (Mus musculus [2]) was “Active” and the Activity (Mus musculus [3]) was 9.9%. The Activity (Mus musculus [4]) was 19.4%, the Activity (Mus musculus [5]) was “Active” and the Activity (Mus musculus [6]) was 10.9%.
With `CCOC(=O)CCCCCOc1ccc(-c2cc(=S)ss2)cc1` the Activity (Mus musculus [7]) was “Active”, the inhibition in vivo at 13 mg/kg (Mus musculus [8]) was 8.2% and the inhibition in vivo at 13 mg/kg (Mus musculus [9]) was 40.1%. For the same compound, the Activity (Mus musculus [1]) was “Active”, the Activity (Mus musculus [2]) was “Active” and the inhibition in vivo at 13 mg/kg (Mus musculus [10]) was 12.5%. For the same compound, the inhibition in vivo at 13 mg/kg (Mus musculus [11]) was 31.8%, the inhibition in vivo at 13 mg/kg (Mus musculus [12]) was 18.4% and the Activity (Mus musculus [3]) was 19.2%. For the same compound, the Activity (Mus musculus [4]) was 21.4%, the Activity (Mus musculus [13]) was “Active” and the inhibition in vivo at 13 mg/kg (Mus musculus [14]) was 10.1%. For the same compound, the inhibition in vivo at 13 mg/kg (Mus musculus [15]) was 31.5 to 39%, the inhibition in vivo at 13 mg/kg (Mus musculus [16]) was 29.4% and the Activity (Mus musculus [5]) was “Active”. For the same compound, the Activity (Mus musculus [17]) was “Active”, the inhibition in vivo at 13 mg/kg (Mus musculus [18]) was 30.7% and the Activity (Mus musculus [6]) was 10.8%.
For `COc1ccc(-c2cc(=S)ss2)cc1`, the Activity (Mus musculus [1]) was “inactive” and the Activity (Mus musculus [2]) was “inactive”.
For `CCOC(=O)C(C)(C)Oc1ccc(-c2cc(=S)ss2)cc1`, the Activity (Mus musculus [2]) was “Active” and the Activity (Mus musculus [5]) was “Active”.
With `CCOC(=O)COc1ccc(-c2cc(=S)ss2)cc1` the Activity (Mus musculus [2]) was “Active” and the Activity (Mus musculus [5]) was “Active”.
For `CCOC(=O)CCCCOc1ccc(-c2cc(=S)ss2)cc1`, the Activity (Mus musculus [1]) was “Active”, the Activity (Mus musculus [2]) was “Active” and the Activity (Mus musculus [5]) was “Active”.
In the case of `CCOC(=O)C(CC)Oc1ccc(-c2cc(=S)ss2)cc1` (stereo not given), the Activity (Mus musculus [2]) is reported as “Active” and the Activity (Mus musculus [5]) is reported as “Active”.
With `CCOC(=O)CCCCCCOc1ccc(-c2cc(=S)ss2)cc1` the Activity (Mus musculus [1]) was “Active”, the Activity (Mus musculus [2]) was “Active” and the Activity (Mus musculus [5]) was “Active”.
`CCOC(=O)C(C)Oc1ccc(-c2cc(=S)ss2)cc1` (stereo not given) was tested, and the Activity (Mus musculus [2]) was “Active” and the Activity (Mus musculus [5]) was “Active”.
